Where two headings read alike, the source gives them in different places.
Assays:
WT EGFR (A431 cells) = WT EGFR (A431 cells) (Homo sapiens (Human), UniProt P00533); experiment: Phospho-EGFR signaling immunoblot in A431 cells (WT EGFR); assay type: cell-based; conditions: 1 hr treatment, EGF stimulated, phospho-EGFR (Y1068)
Experimental: (§1) A431 human epidermoid carcinoma, H1975 human NSCLC and HCC827 human NSCLC adenocarcinoma cells were obtained from the American Type Culture Center (Manassas, Va.). A431 cells were grown in DMEM (Invitrogen, Carlsbad, Calif.) supplemented with 10% FBS (HyClone, South Logan, Utah) and 1% Penicillin-Streptomycin (P/S, Lonza, Walkersville, Md.).
(§2) All primary antibodies were obtained from Cell Signaling (Danvers, Mass.) and used at 1:1000. Secondary antibodies were used at 1:10,000. Goat anti-mouse IgG IRDye 800CW antibody was obtained from LiCor Biosciences (Lincoln, Nebr.) and goat anti-rabbit IgG Alexa Fluor 680 was obtained from Invitrogen.
(§3) Cells were grown in 12-well plates (Corning, Coring, N.Y.) to 90% confluence and then incubated in low-serum (0.1% FBS) media for 16-18 hr. […] A431 cells were then stimulated with 50 ng/ml EGF (Peprotech, Rocky Hill, N.J.) for 15 min. After treatment, cell monolayers were washed with cold PBS (Invitrogen) and immediately lysed by scrapping into 60 uL cold Cell Extraction Buffer (Invitrogen) supplemented with Complete Protease inhibitors (Roche, Indianapolis, Ind.) and PhosphoSTOP (Roche) phosphatase inhibitors.
(§4) Phospho-protein signals were quantitated using Odyssey Infrared Imaging (Li-Cor Biosciences).
(§5) To assess phosphor-EGFR signaling, blots were probed with rabbit anti-Phospho-EGFR (Y1068) and mouse total anti-EGFR antibodies. Phospho-EGFR signal was normalized to total EGFR expression for each sample. […] Normalized data was fitted using a sigmoidal curve analysis program (Graph Pad Prism version 5) with variable Hill slope to determine the EC50 values.
(§6) The compound numbers recited in Table 4 correspond to the compound numbers in Table 1.

[1] = target: EGFR double mutation L858R/T790M (H1975 cells) (Homo sapiens (Human), UniProt P00533, L858R/T790M); experiment: Phospho-EGFR signaling immunoblot in H1975 cells; assay type: cell-based; conditions: for EC50: H1975 cells, 1 hr treatment, phospho-EGFR (Y1068); for Ratio WT/mutant (H1975): signaling EC50 WT EGFR / H1975
Experimental: as §1, §2, §3, §4, §5, §6

[2] = test system: H1975 cells (EGFR L858R/T790M); experiment: Cell proliferation (CellTiter Glo), H1975 cells
Experimental: (§7) Cells were plated in Growth Media supplemented with 5% FBS and 1% P/S at a density of 3,000 cells per well in 96 well tissue culture plates (Corning). […] Growth inhibition (GI50) values were determined by Graph Pad Prism.

H1975 tumor = H1975 tumor in vivo study; conditions: female nu/nu mice, H1975 subcutaneous, intraperitoneal 25 mg/kg daily for 21 days, determined at 15 days
Experimental: H1975 Tumor In Vivo Study
Female nu/nu mice were implanted with 1×10^7 H1975 tumor cells in 50% Matrigel subcutaneously (0.2 ml injection volume) in the flank. Tumor measurements were recorded three times per week. Tumors were pair matched when they reached an average size of 100-150 mg. Group size was 10 mice. Test compound was administered intraperitoneal, 25 mg/kg daily for 21 days. % Tumor inhibition values were determined at 15 days, the time at which the control group reached a maximum tumor volume. Tumor volume was followed until tumors reached 1500 mm^3 or 60 days.

EGFR (WT) = EGFR (WT) (Homo sapiens (Human), UniProt P00533); experiment: Omnia biochemical assay, EGFR-WT active enzyme; conditions: [EGFR-WT]=5 nM, [ATP]=15 uM, 30 min pre-incubation
Experimental: Kinase reactions were started with the addition of 45 μL of the ATP/Tyr-Sox peptide substrate mix and monitored every 71 seconds for 60 minutes at λex360/λem485 in a Synergy^4 plate reader from BioTek (Winooski, Vt.).
The compound numbers correspond to the compound numbers in Table 1.

[3] = test system: HCC827 cells (EGFR delE746-A750); experiment: Cell proliferation (CellTiter Glo), HCC827 cells
Experimental: as §7

A431 cells (WT EGFR) = experiment: Cell proliferation (CellTiter Glo), A431 cells
Experimental: as §7

[4] = target: EGFR Deletion/T790M Mutation (H1975 cells) (Homo sapiens (Human), UniProt P00533, L858R/T790M); experiment: Washout experiment in H1975 cells (pEGFR after compound removal); assay type: cell-based; conditions: 500 nM for 1 hr, at 24 h after compound removal
Experimental: Washout Experiment in H1975 Cells Containing EGFR Deletion/T790M Mutation
Cells were plated in Growth Media supplemented with 10% FBS and 1% P/S at a density of 2.0×10^5 cells per well in 12 well tissue culture plates. Cells were allowed to settle down for 4 hrs and then maintained in low-serum (0.1% FBS) media overnight.
The following morning the media was removed and the cells were treated with 500 nM test compound in low-serum media for 1 hr. The cells were washed free of compound 2× with PBS (Invitrogen). One set of cells were immediately lysed as indicated above as the 0 hr time point. The remaining cells were incubated with complete RPMI-1640 growth media (10% FBS) for 1, 3, 6 and 24 hr. For the first 1 hr, cells were washed 2× with PBS every 30 min. DMSO (0.5%) controls were collected at the 0, 3, 6 and 24 hr time points.

[5] = target: EGFR delE746-A750 deletion mutation (HCC827 cells) (Homo sapiens (Human), UniProt P00533, DEL746-750); experiment: Phospho-EGFR signaling immunoblot in HCC827 cells; assay type: cell-based; conditions: for EC50: HCC827 cells, 1 hr treatment, phospho-EGFR (Y1068); for Ratio WT/mutant (HCC827): signaling EC50 WT EGFR / HCC827
Experimental: as §1, §2, §3, §4, §5, §6

[6] = proliferation GI50 WT EGFR / H1975
[7] = proliferation GI50 WT EGFR / HCC827

C=CC(=O)Nc1cccc(Oc2nc(Nc3ccc(N4CCOCC4)cc3OC)ncc2C(F)(F)F)c1 [Compound I-1, N-(3-(2-(2-methoxy-4-morpholinophenylamino)-5-(trifluoromethyl)pyrimidin-4-yloxy)phenyl)acrylamide]
EC50 (WT EGFR (A431 cells)): > 1 µM | EC50 [1]: 0.01 to 0.1 µM | Ratio WT/mutant (H1975) [1]: >50 | Ratio WT/mutant (H1975) [2, 6]: >15 | % Tumor inhibition (H1975 tumor): >66% | IC50 (EGFR (WT)): 0.03 to 0.1 µM | Ratio WT/mutant (HCC827) [3, 7]: >15

N-(3-(5-chloro-2-(2-methoxy-4-morpholinophenylamino)pyrimidin-4-ylamino)phenyl)acrylamide [Compound I-15]
Ratio WT/mutant (H1975) [2, 6]: >1 | GI50 ([2]; read-out: H1975 GI50, H1975 cells, 72 hr): 500 to 1000 nM | GI50 (A431 cells (WT EGFR); read-out: WT EGFR GI50, A431 cells, 72 hr): > 1000 nM | IC50 (EGFR (WT)): 0.03 to 0.1 µM | Ratio WT/mutant (HCC827) [3, 7]: >10 | GI50 ([3]; read-out: HCC827 GI50, HCC827 cells, 72 hr): 100 to 500 nM

C=CC(=O)Nc1cccc(Oc2nc(Nc3ccc(N4CCN(C(C)=O)CC4)cc3OC)ncc2C(F)(F)F)c1 [Compound I-10, N-(3-(2-(4-(4-acetylpiperazin-1-yl)-2-methoxyphenylamino)-5-(trifluoromethyl)pyrimidin-4-yloxy)phenyl)acrylamide]
Ratio WT/mutant (H1975) [2]: >1 | GI50 ([2]; Homo sapiens, NCI-H1975, 72 h, read-out: H1975 GI50 (nM)): 500 to 1000 nM | GI50 (A431 cells (WT EGFR); Homo sapiens, A-431, 72 h, read-out: WT EGFR GI50 (nM)): > 1000 nM | IC50 (EGFR (WT)): 0.001 to 0.01 µM | Ratio WT/mutant (HCC827) [3]: >20 | GI50 ([3]; Homo sapiens, HCC827, 72 h, read-out: HCC827 GI50 (nM)): 100 to 500 nM

C=CC(=O)Nc1cccc(Nc2nc(Nc3ccc(N4CCN(C(C)=O)CC4)cc3OC)ncc2C(F)(F)F)c1 [Compound I-4, N-(3-(2-(4-(4-acetylpiperazin-1-yl)-2-methoxyphenylamino)-5-(trifluoromethyl)pyrimidin-4-ylamino)phenyl)acrylamide]
% Tumor inhibition (H1975 tumor): >66% | activity restored by new protein synthesis [4]: 40-60%

C=CC(=O)Nc1cccc(Nc2nc(Nc3ccc(N4CCOCC4)cc3OC(F)F)ncc2C(F)(F)F)c1 [Compound I-14, N-(3-(2-(2-(difluoromethoxy)-4-morpholinophenylamino)-5-(trifluoromethyl)pyrimidin-4-ylamino)phenyl)acrylamide]
EC50 (WT EGFR (A431 cells)): 0.5 to 1 µM | EC50 [1]: 0.01 to 0.1 µM | Ratio WT/mutant (H1975) [1]: >15 | Ratio WT/mutant (H1975) [2, 6]: >5 | EC50 [5]: 0.01 to 0.1 µM | Ratio WT/mutant (HCC827) [5]: >15 | IC50 (EGFR (WT)): 0.01 to 0.03 µM | Ratio WT/mutant (HCC827) [3, 7]: >10

C=CC(=O)Nc1cccc(Oc2nc(Nc3ccc(N4CCOCC4)cc3OC)ncc2Cl)c1 [Compound I-5, N-(3-(5-chloro-2-(2-methoxy-4-morpholinophenylamino)pyrimidin-4-yloxy)phenyl)acrylamide]
EC50 (WT EGFR (A431 cells)): > 1 µM | EC50 [1]: 0.01 to 0.1 µM | Ratio WT/mutant (H1975) [1]: >30 | Ratio WT/mutant (H1975) [2, 6]: >5 | % Tumor inhibition (H1975 tumor): >33% | IC50 (EGFR (WT)): 0.01 to 0.03 µM | Ratio WT/mutant (HCC827) [3, 7]: >20

C=CC(=O)Nc1cccc(Oc2nc(Nc3ccc(N4CCN(C(=O)OC(C)(C)C)CC4)cc3OC)ncc2Cl)c1 [Compound I-46, tert-butyl 4-(4-(4-(3-acrylamidophenoxy)-5-chloropyrimidin-2-ylamino)-3-methoxyphenyl)piperazine-1-carboxylate]
EC50 (WT EGFR (A431 cells)): > 1 µM | EC50 [1]: 0.1 to 0.5 µM | Ratio WT/mutant (H1975) [1]: >10 | Ratio WT/mutant (H1975) [2]: >1 | EC50 [5]: < 0.01 µM | Ratio WT/mutant (HCC827) [5]: >50 | IC50 (EGFR (WT)): 0.1 to 0.3 µM | Ratio WT/mutant (HCC827) [3]: >10

C=CC(=O)Nc1cccc(Nc2nc(Nc3ccc(N4CCOCC4)cc3OC)ncc2C(F)(F)F)c1 [Compound I-2, N-(3-(2-(2-methoxy-4-morpholinophenylamino)-5-(trifluoromethyl)pyrimidin-4-ylamino)phenyl)acrylamide]
EC50 (WT EGFR (A431 cells)): > 1 µM | EC50 [1]: 0.01 to 0.1 µM | Ratio WT/mutant (H1975) [1]: >50 | Ratio WT/mutant (H1975) [2, 6]: >20 | % Tumor inhibition (H1975 tumor): >66% | IC50 (EGFR (WT)): 0.01 to 0.03 µM | activity restored by new protein synthesis [4]: 40-60% | Ratio WT/mutant (HCC827) [3, 7]: >40

— patent US8975249B2, “Heterocyclic compounds and uses thereof” (Celgene Avilomics Research, Inc., priority 2010, dated 2015)
